Laboratory results reported in patent publication US4278762A, “Method for the quantitative determination of plasminogen activators” (Pentapharm AG, priority 1976, dated 1981).
Structures can show the parent of a compound that is named as a salt. Non-standard residues stand in square brackets, D forms with d. Residues, ends and D or L forms follow the SMILES beside them. *: point of attachment. Hydrocinnamoyl = O=C(CCc1ccccc1)*; dChg = N[C@@H](C(=O)O)C1CCCCC1; pNA = O=[N+]([O-])c1ccc(N*)cc1; Chg = N[C@H](C(=O)O)C1CCCCC1; Cbz = O=C(OCc1ccccc1)*; PhAc = O=C(Cc1ccccc1)*; Bz = O=C(c1ccccc1)*

Target: T1, urokinase (Homo sapiens, UniProt P00749)
T1 construct: also urine of healthy test persons
Experiment: Amidolytic splitting by urokinase and other plasminogen activators
Assay type: biochemical
Details: not given

SMILES | splitting by urokinase and other plasminogen activators (in words)
CC(C)[C@H](N)C(=O)NCC(=O)N[C@@H](CCCNC(=N)N)C(=O)Nc1ccc([N+](=O)[O-])cc1 [B] (H-Val-Gly-Arg-pNA) | rapidly amidolytically split by urokinase

Target: T2, trypsin (Bos taurus, UniProt P00760)
T2 construct: b360 concerns trypsin in duodenal juice
T2 sequence (P00760 24-246): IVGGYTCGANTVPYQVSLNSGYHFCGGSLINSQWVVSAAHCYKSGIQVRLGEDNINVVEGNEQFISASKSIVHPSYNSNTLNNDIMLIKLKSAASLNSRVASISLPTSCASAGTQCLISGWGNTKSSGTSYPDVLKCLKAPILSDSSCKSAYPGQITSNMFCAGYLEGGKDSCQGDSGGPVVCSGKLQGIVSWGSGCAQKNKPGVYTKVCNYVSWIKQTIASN
Experiment: Kinetic constants Km and vmax of substrate hydrolysis by trypsin (Lineweaver-Burk)
Assay type: biochemical
Details: per NF unit
Experimental: The enzyme and the substrate are mixed in a buffer solution, and the hydrolysis reaction is followed for 2 to 30 minutes. The concentration of substate [S] is varied, whereas the enzyme concentration is kept constant. If the extinction (OD=optical density) is plotted in a co-ordinate system as a function of time, a curve is obtained the tangent of which at time zero corresponds to the ideal course of the hydrolysis. By means of this tangent the initial rate of the hydrolysis can be determined.
If 1/v is plotted against (1/[S]), a Lineweaver-Burk diagram (cf. "Kurzes Lehrbuch der Biochemie" by P. KARLSON, Georg Thieme-Verlag, Stuttgart, 1967, p. 70) is obtained from which vmax and Km can be determined graphically.
For the determination of the kinetic constants Km and vmax listed in Table I aqueous dilution series of the substrates with concentrations from 0.1 to 2 μmoles/ml were used. […] The value of the quantity of p-nitroaniline formed per minute is a measure for the rate of hydrolysis at a given substrate concentration. […] The kinetic constants Km and vmax were determined from the points of intersection of the curves with the abscissa and the ordinate.

SMILES | Vmax
CC(C)[C@@H](N)C(=O)NCC(=O)N[C@@H](CCCNC(=N)N)C(=O)Nc1ccc([N+](=O)[O-])cc1 [XVI] (H-[dV]-Gly-Arg-pNA) | 4.17 × 10^-3 μmole/min. NF

Target: T3, bovine trypsin (Bos taurus, UniProt P00760)
T3 sequence (P00760 24-246): T2 sequence (P00760 24-246)
Experiment: Activity of bovine trypsin at constant substrate and enzyme concentrations (Table IV)
Assay type: biochemical
Details: substrate concentration 2 × 10^-4 M; pH 8.4, ionic strength 0.30, 37° C., 405 nm
Experimental: The results listed in Table IV were obtained under the following experimental conditions: In a measuring vessel 1.7 ml of tris-imidazole buffer having a pH of 8.4 and an ionic strength of 0.30 were mixed at 37° C. with 0.1 ml of an aqueous trypsin solution having a concentration of 2 NF units of trypsin per ml. To the mixture 0.2 ml of a 2×10^-3 molar solution of the substrate to be tested was added. Thereafter, the quantity of p-nitroaniline released from the substrate by the action of the trypsin was determined by measuring the change in the optical density Δ OD per minute at a wave length of 405 nm.

SMILES | Quantity in nanomoles of p-nitroaniline enzymatically released from the substrate by 1 NF unit of trypsin in 1 minute
N=C(N)NCCCC(NC(=O)c1ccccc1)C(=O)Nc1ccc([N+](=O)[O-])cc1 (racemic) [N^α --Bz--DL--Arg--pNA . HCl, reference compound] | 0,45 nanomoles
CC(C)[C@H](NC(=O)[C@H](Cc1ccccc1)NC(=O)c1ccccc1)C(=O)N[C@@H](CCCNC(=N)N)C(=O)Nc1ccc([N+](=O)[O-])cc1 [N^α --Bz--Phe--Val--Arg--pNA . HCl, reference compound] (Bz-Phe-Val-Arg-pNA) | 8,4 nanomoles
CC(C)[C@H](N)C(=O)NCC(=O)N[C@@H](CCCNC(=N)N)C(=O)Nc1ccc([N+](=O)[O-])cc1 [Substrate II, H-Val-Gly-Arg-pNA.2HCl] (H-Val-Gly-Arg-pNA) | 10,8 nanomoles
CC[C@H](C)[C@H](NC(=O)c1ccccc1)C(=O)NCC(=O)N[C@@H](CCCNC(=N)N)C(=O)Nc1ccc([N+](=O)[O-])cc1 [Substrate III, N^α -Bz-Ile-Gly-Arg-pNA.HCl] (Bz-Ile-Gly-Arg-pNA) | 28.5 nmol
CC(C)C[C@H](NC(=O)c1ccccc1)C(=O)NCC(=O)N[C@@H](CCCNC(=N)N)C(=O)Nc1ccc([N+](=O)[O-])cc1 [Substrate IV, N^α -Bz-Leu-Gly-Arg-pNA.HCl] (Bz-Leu-Gly-Arg-pNA) | 19.2 nmol
CC(C)[C@H](NC(=O)Cc1ccccc1)C(=O)NCC(=O)N[C@@H](CCCNC(=N)N)C(=O)Nc1ccc([N+](=O)[O-])cc1 [Substrate IX, N^α -2-Phenylacetyl-Val-Gly-Arg-pNA.HCl] (PhAc-Val-Gly-Arg-pNA) | 17.5 nmol
CC(C)[C@H](NC(=O)c1ccccc1)C(=O)N[C@@H](CO)C(=O)N[C@@H](CCCNC(=N)N)C(=O)Nc1ccc([N+](=O)[O-])cc1 [Substrate V, N^α -Bz-Val-Ser-Arg-pNA.HCl] | 15.9 nmol
CC[C@H](C)[C@H](NC(=O)c1ccccc1)C(=O)N[C@@H](CO)C(=O)N[C@@H](CCCNC(=N)N)C(=O)Nc1ccc([N+](=O)[O-])cc1 [Substrate VI, N^α -Bz-Ile-Ser-Arg-pNA.HCl] (Bz-Ile-Ser-Arg-pNA) | 19.1 nmol
CC(C)C[C@H](NC(=O)c1ccccc1)C(=O)N[C@@H](CO)C(=O)N[C@@H](CCCNC(=N)N)C(=O)Nc1ccc([N+](=O)[O-])cc1 [Substrate VII, N^α -Bz-Leu-Ser-Arg-pNA.HCl] (Bz-Leu-Ser-Arg-pNA) | 25.7 nmol
CC(C)[C@H](NC(=O)CCc1ccccc1)C(=O)NCC(=O)N[C@@H](CCCNC(=N)N)C(=O)Nc1ccc([N+](=O)[O-])cc1 [Substrate VIII, N^α -3-Phenylpropionyl-Val-Gly-Arg-pNA.HCl] (Hydrocinnamoyl-Val-Gly-Arg-pNA) | 14.2 nmol
N=C(N)NCCC[C@H](NC(=O)CNC(=O)[C@H](N)C1CCCCC1)C(=O)Nc1ccc([N+](=O)[O-])cc1 [XIII] (H-[dChg]-Gly-Arg-pNA) | 28.8 nmol
N=C(N)NCCC[C@H](NC(=O)CNC(=O)[C@@H](NC(=O)c1ccccc1)C1CCCCC1)C(=O)Nc1ccc([N+](=O)[O-])cc1 [XII] (Bz-[Chg]-Gly-Arg-pNA) | 37.9 nmol
N=C(N)NCCC[C@H](NC(=O)CNC(=O)[C@H](NC(=O)c1ccccc1)C1CCCCC1)C(=O)Nc1ccc([N+](=O)[O-])cc1 [XIV] (Bz-[dChg]-Gly-Arg-pNA) | 41.9 nmol
N=C(N)NCCC[C@H](NC(=O)CNC(=O)[C@@H](N)C1CCCCC1)C(=O)Nc1ccc([N+](=O)[O-])cc1 [XI] (H-[Chg]-Gly-Arg-pNA) | 20.0 nmol
CC(C)[C@@H](N)C(=O)NCC(=O)N[C@@H](CCCNC(=N)N)C(=O)Nc1ccc([N+](=O)[O-])cc1 [XVI] (H-[dV]-Gly-Arg-pNA) | 33.3 nmol
CC(C)[C@H](NC(=O)OCc1ccccc1)C(=O)NCC(=O)N[C@@H](CCCNC(=N)N)C(=O)Nc1ccc([N+](=O)[O-])cc1 [XV] (Cbz-Val-Gly-Arg-pNA) | 41.3 nmol
N=C(N)NCCC[C@H](NC(=O)CNC(=O)[C@@H](NC(=O)OCc1ccccc1)C1CCCCC1)C(=O)Nc1ccc([N+](=O)[O-])cc1 [X] (Cbz-[Chg]-Gly-Arg-pNA) | 46.7 nmol

Tested on: kallikrein
Experiment: Hydrolysis of tripeptide-p-nitroanilides by kallikrein
Assay type: biochemical
Details: not given

SMILES | hydrolysis by kallikrein (in words)
N=C(N)NCCC[C@H](NC(=O)[C@H](Cc1ccccc1)NC(=O)[C@@H]1CCCN1)C(=O)Nc1ccc([N+](=O)[O-])cc1 [A] (H-Pro-Phe-Arg-pNA) | hydrolyzed by kallikrein
CC(C)[C@H](N)C(=O)NCC(=O)N[C@@H](CCCNC(=N)N)C(=O)Nc1ccc([N+](=O)[O-])cc1 [B] (H-Val-Gly-Arg-pNA) | not split by kallikrein at all
